Assay results published in publication PMC11672400, “Synthesis, Spectroscopic Characterization, Structural Analysis, and Evaluation of Anti-Tumor, Antimicrobial, and Antibiofilm Activities of Halogenoaminopyrazoles Derivatives” (Antibiotics, 2024).
Converted amounts (≈) assume the structure as drawn. Like-named read-outs stand apart in the source and are kept apart here.

How the values were obtained:
[1] = MTT cell viability / cytotoxicity on normal fibroblasts; format: cell-based, mouse; details: mouse
Description: (§1) Merck chemicals were utilized.
(§2) Untreated cells were used as control, considered 100% viable cells.

[2] = test system: NCTC (clone 929) mouse fibroblast cells; experiment: as above; format: cell-based; details: Mus musculus, NCTC clone 929; NCTC normal fibroblasts, MTT, 48 h
Description: as §1, §2

[3] = test system: Enterococcus faecalis ATCC29212; experiment: Qualitative evaluation of antimicrobial activity (inhibition zone, spot on agar); format: cell-based; parameters: key: (+) inhibited bacterial growth; (-) did not inhibit bacterial growth; details: 0.06 g/2 mL DMSO, 5 µL spot
Method: (§3) For testing the antimicrobial/antibiofilm activity, the concentration of the studied compounds was identical to 0.06 g/2 mL DMSO. 0.5 Standard McFarland suspension was used, which was inoculated onto Mueller Hinton agar plates, (Remel, Lenexa, KS, USA), 5 µL of each compound was spotted and incubated overnight at 37 °C. Antimicrobial activity was observed as zones of inhibition formed around the spot.

[4] = test system: Escherichia coli ATCC25922; experiment: as above; format: cell-based; parameters: key: (+) inhibited bacterial growth; (-) did not inhibit bacterial growth; details: 0.06 g/2 mL DMSO, 5 µL spot
Method: as §3

[5] = test system: Pseudomonas aeruginosa ATCC27853; experiment: as above; format: cell-based; parameters: key: (+) inhibited bacterial growth; (-) did not inhibit bacterial growth; details: 0.06 g/2 mL DMSO, 5 µL spot
Method: as §3

[6] = test system: Staphylococcus aureus ATCC25923; experiment: as above; format: cell-based; parameters: key: (+) inhibited bacterial growth; (-) did not inhibit bacterial growth; details: 0.06 g/2 mL DMSO, 5 µL spot
Method: as §3

[7] = test system: Enterococcus faecalis ATCC29212; experiment: MIC by serial microdilution in liquid medium; format: cell-based; details: 24 h, 37 °C; for MIC: Enterococcus faecalis, ATCC29212, read-out: Minimum inhibitory concentration, Enterococcus faecalis ATCC29212
Method: (§4) The minimum inhibitory concentrations (MIC) were determined by the serial microdilution method in a liquid medium (Tryptone Soy Broth), on 96-well plates. Serial binary dilutions of the compound stock solution (10 mg/mL in DMSO) were carried out in 90 µL of culture medium and 10 µL of 10^6 CFU/mL (Colony Forming Units) microbial suspension. Each test included a positive control (wells with culture medium and microbial suspension) and a negative control for medium sterility. After incubation at 37 °C for 24 h the plates were visually examined, and optical density was measured at 620 nm. […] The MIC value (µg/mL) for the chemical compound was determined by the concentration in the final well without bacterial growth. All experiments were performed in triplicate.

[8] = test system: Escherichia coli ATCC25922; experiment: MIC by serial microdilution in liquid medium; format: cell-based; details: 24 h, 37 °C; for MIC: Escherichia coli, ATCC25922, read-out: Minimum inhibitory concentration, Escherichia coli ATCC25922
Method: as §4

[9] = test system: Pseudomonas aeruginosa ATCC27853; experiment: MIC by serial microdilution in liquid medium; format: cell-based; details: 24 h, 37 °C; for MIC: Pseudomonas aeruginosa, ATCC27853, read-out: Minimum inhibitory concentration, Pseudomonas aeruginosa ATCC27853
Method: as §4

[10] = test system: Staphylococcus aureus ATCC25923; experiment: MIC by serial microdilution in liquid medium; format: cell-based; details: 24 h, 37 °C; for MIC: Staphylococcus aureus, ATCC25923, read-out: Minimum inhibitory concentration, Staphylococcus aureus ATCC25923
Method: as §4

[11] = test system: Enterococcus faecalis ATCC29212; experiment: Antibiofilm assay (crystal violet), MBIC; format: cell-based; details: Enterococcus faecalis, ATCC29212, 24 h, 37 °C, read-out: Minimum biofilm inhibition concentration (MBIC), Enterococcus faecalis ATCC29212
Method: (§5) Microorganisms were grown in 96-well plates filled with nutrient broth along with test substances, followed by incubation at 37 °C for 24 h. Plates were cleaned and rinsed thrice using SPW solution (sterile physiological water). After that, the attached cells were treated with 110 μL of methanol for 5 min, and then the methanol was removed by turning it upside down. […] Once stained, the solution was removed, and the plates were washed with running tap water. […] The antimicrobial/antibiofilm activity of the compounds was evaluated against two antibiotics, commercial formulations of metronidazole and nitrofurantoin.

[12] = test system: Escherichia coli ATCC25922; experiment: Antibiofilm assay (crystal violet), MBIC; format: cell-based; details: 37 °C; for minimal effective concentration: Escherichia coli, ATCC25922, 24 h, read-out: Minimum biofilm inhibition concentration (MBIC), Escherichia coli ATCC25922
Method: as §5

[13] = test system: Pseudomonas aeruginosa ATCC27853; experiment: Antibiofilm assay (crystal violet), MBIC; format: cell-based; details: 37 °C; for minimal effective concentration: Pseudomonas aeruginosa, ATCC27853, 24 h, read-out: Minimum biofilm inhibition concentration (MBIC), Pseudomonas aeruginosa ATCC27853; for Minimum biofilm inhibition concentration (MBIC), Pseudomonas aeruginosa ATCC27853: 24 h
Method: as §5

[14] = test system: Staphylococcus aureus ATCC25923; experiment: Antibiofilm assay (crystal violet), MBIC; format: cell-based; details: 24 h, 37 °C; for minimal effective concentration: Staphylococcus aureus, ATCC25923, read-out: Minimum biofilm inhibition concentration (MBIC), Staphylococcus aureus ATCC25923
Method: as §5

[15] = test system: HEp-2 epithelial tumor cells; experiment: MTT cell viability / anti-tumor activity; details: for viability at 3.1 µg/mL / viability at 6.25 µg/mL / viability at 12.5 µg/mL / viability at 25 µg/mL / viability at 50 µg/mL / IC50: Homo sapiens; for viability at 3.1 µg/mL / viability at 6.25 µg/mL / viability at 12.5 µg/mL / viability at 25 µg/mL / viability at 50 µg/mL: read-out: Cell viability on Hep2 cells (%); for IC50: read-out: IC50 µg/mL on HEp-2 Cells 48 h, HEp-2 epithelial tumor cells, MTT, 48 h
[16] = read-out: Cell viability on NCTC cells (%)
[17] = NCTC clone 929 (L929) mouse fibroblast cells

SMILES	IC50 [2] [µg/mL]	Qualitative antimicrobial activity, Enterococcus faecalis ATCC29212 [3]	Qualitative antimicrobial activity, Escherichia coli ATCC25922 [4]	Qualitative antimicrobial activity, Pseudomonas aeruginosa ATCC27853 [5]	Qualitative antimicrobial activity, Staphylococcus aureus ATCC25923 [6]	MIC [7] [µg/mL]	MIC [8] [µg/mL]	MIC [9] [µg/mL]	MIC [10] [µg/mL]	minimal effective concentration [13] [µg/mL]	minimal effective concentration [14] [µg/mL]	viability at 3.1 µg/mL ([15]; HEp-2, 24 h) [%]	viability at 6.25 µg/mL ([15]; HEp-2, 24 h) [%]	viability at 12.5 µg/mL ([15]; HEp-2, 24 h) [%]	viability at 25 µg/mL ([15]; HEp-2, 24 h) [%]	viability at 50 µg/mL ([15]; HEp-2, 24 h) [%]	viability at 3.1 µg/mL ([15]; HEp-2, 48 h) [%]	viability at 6.25 µg/mL ([15]; HEp-2, 48 h) [%]	viability at 12.5 µg/mL ([15]; HEp-2, 48 h) [%]	viability at 25 µg/mL ([15]; HEp-2, 48 h) [%]	other results
Cc1nn(CN(Cn2nc(C)c([N+](=O)[O-])c2C)c2ccc(I)cc2)c(C)c1[N+](=O)[O-] [5d, N,N-bis-[(3,5-dimetyl-4-nitro-1H-pyrazol-1-yl)-methyl]-4-iodoaniline]	> 50	-	-	-	-	1870 ± 0.05 (≈ 3560 µM)	1870 ± 0.04 (≈ 3560 µM)	1870 ± 0.04 (≈ 3560 µM)	1870 ± 0.07 (≈ 3560 µM)	930 ± 0.15	930 ± 0.15	88.45 ± 0.28	89.15 ± 0.73	91.41 ± 0.69	89.86 ± 0.48	89.86 ± 0.16	96.17 ± 0.13	78.61 ± 0.67	61.51 ± 0.34	45.75 ± 0.33	viability at 24 h, 3.1 µg/mL [1, 16]: 103 ± 1.49%; viability at 48 h, 3.1 µg/mL [1, 16]: 93.58 ± 0.71%; viability at 24 h, 6.25 µg/mL [1, 16]: 108 ± 2.4%; viability at 48 h, 6.25 µg/mL [1, 16]: 103%; viability at 24 h, 12.5 µg/mL [1, 16]: 106 ± 2.05%; viability at 48 h, 12.5 µg/mL [1, 16]: 102 ± 3.03%; viability at 24 h, 25 µg/mL [1, 16]: 98.4 ± 3.87%; viability at 48 h, 25 µg/mL [1, 16]: 95.8 ± 2.12%; viability at 24 h, 50 µg/mL [1, 16]: 83 ± 2.9%; viability at 48 h, 50 µg/mL [1, 16]: 88.3 ± 1.55%; minimal effective concentration [11]: 1870 ± 0.15 µg/mL; minimal effective concentration [12]: 1870 ± 0.15 µg/mL; viability at 50 µg/mL ([15]; HEp-2, 48 h): 20.8%; IC50 ([15]; HEp-2, 48 h): 26.61 ± 0.11 µg/mL (≈ 50.7 µM)
Cc1nn(CN(Cn2nc(C)c([N+](=O)[O-])c2C)c2ccc(Cl)cc2)c(C)c1[N+](=O)[O-] [5b, N,N-bis-[(3,5-dimetyl-4-nitro-1H-pyrazol-1-yl)-methyl]-4-chloroaniline]	29.8 ± 0.32 (≈ 68.7 µM)	+	+	+	+	460 ± 0.54 (≈ 1060 µM)	460 (≈ 1060 µM)	460 ± 0.58 (≈ 1060 µM)	460 (≈ 1060 µM)	460	460	105 ± 1.52	104 ± 2.25	102 ± 3.76	90.8 ± 2.84	65.3 ± 2.02	110 ± 1.25	94.7 ± 3.8	87.1 ± 0.92	74.8 ± 0.33	viability at 24 h, 3.1 µg/mL [1, 16]: 99.1 ± 3.42%; viability at 48 h, 3.1 µg/mL [1, 16]: 100 ± 2.53%; viability at 24 h, 6.25 µg/mL [1, 16]: 103 ± 3.06%; viability at 48 h, 6.25 µg/mL [1, 16]: 94.9 ± 2.14%; viability at 24 h, 12.5 µg/mL [1, 16]: 98.8 ± 3.47%; viability at 48 h, 12.5 µg/mL [1, 16]: 84 ± 3.77%; viability at 24 h, 25 µg/mL [1, 16]: 70 ± 2.51%; viability at 48 h, 25 µg/mL [1, 16]: 55.2 ± 1.6%; viability at 24 h, 50 µg/mL [1, 16]: 48.6 ± 1.35%; viability at 48 h, 50 µg/mL [1, 16]: 28.1 ± 0.35%; Minimum inhibitory concentration, Escherichia coli ATCC25922 [8]: 460 ± 0.27 µg/mL (≈ 1060 µM); Minimum inhibitory concentration, Staphylococcus aureus ATCC25923 [10]: 460 ± 0.01 µg/mL (≈ 1060 µM); Minimum biofilm inhibition concentration (MBIC), Escherichia coli ATCC25922 ([12]; 24 h): 460 ± 0.03 µg/mL; minimal effective concentration [12]: 460 µg/mL; Minimum biofilm inhibition concentration (MBIC), Pseudomonas aeruginosa ATCC27853 [13]: 460 ± 0.51 µg/mL; Minimum biofilm inhibition concentration (MBIC), Staphylococcus aureus ATCC25923 [14]: 460 ± 0.01 µg/mL; melting point: 132 to 134 °C; IC50 µg/mL on HEp-2 Cells 48 h ([15]; HEp-2 epithelial tumor cells, MTT, 48 h): >50 µg/mL; viability at 50 µg/mL ([15]; HEp-2, 48 h): 54.6 ± 1.17%; IC50 ([15]; HEp-2, 48 h): 26.6 to 47.3 µg/mL (≈ 61.3 to 109 µM)
Cc1nn(CNc2ccc(Cl)cc2)c(C)c1[N+](=O)[O-] [4b, N-[(3,5-dimetyl-4-nitro-1H-pyrazol-1-yl)-methyl]-4-chloroaniline]	36.1 ± 1.23 (≈ 129 µM)	+	+	+	+	460 (≈ 1640 µM)	460 (≈ 1640 µM)	460 (≈ 1640 µM)	460 (≈ 1640 µM)	460	460	116 ± 2.48	105 ± 2.91	100 ± 2.49	88.8 ± 1.65	65.6 ± 2.78	112.6 ± 1.03	104 ± 1.08	98 ± 1.42	79.5 ± 1.49	viability at 24 h, 3.1 µg/mL [1, 17]: 100 ± 1.63%; viability at 48 h, 3.1 µg/mL [1, 17]: 95.08 ± 0.82%; viability at 24 h, 6.25 µg/mL [1, 17]: 101 ± 3.31%; viability at 48 h, 6.25 µg/mL [1, 17]: 93 ± 1.35%; viability at 24 h, 12.5 µg/mL [1, 17]: 98.6 ± 2.62%; viability at 48 h, 12.5 µg/mL [1, 17]: 89.7 ± 3.15%; viability at 24 h, 25 µg/mL [1, 17]: 96.3 ± 2.22%; viability at 48 h, 25 µg/mL [1, 17]: 61.9 ± 1.38%; viability at 24 h, 50 µg/mL [1, 17]: 64.9 ± 0.94%; viability at 48 h, 50 µg/mL [1, 17]: 31.6 ± 1.27%; Minimum inhibitory concentration, Enterococcus faecalis ATCC29212 [7]: 460 ± 0.02 µg/mL (≈ 1640 µM); Minimum inhibitory concentration, Escherichia coli ATCC25922 [8]: 460 ± 0.05 µg/mL (≈ 1640 µM); Minimum inhibitory concentration, Pseudomonas aeruginosa ATCC27853 [9]: 460 ± 0.01 µg/mL (≈ 1640 µM); Minimum inhibitory concentration, Staphylococcus aureus ATCC25923 [10]: 460 ± 0.02 µg/mL (≈ 1640 µM); Minimum biofilm inhibition concentration (MBIC), Pseudomonas aeruginosa ATCC27853 [13]: 460 ± 0.02 µg/mL; Minimum biofilm inhibition concentration (MBIC), Staphylococcus aureus ATCC25923 [14]: 460 ± 0.01 µg/mL; melting point: 99 to 100 °C; viability at 50 µg/mL ([15]; HEp-2, 48 h): 46.8 ± 3.35%; IC50 ([15]; HEp-2, 48 h): 47.3 ± 3.38 µg/mL (≈ 169 µM)
